Test results: patent publication US12173137B2, “Functionalized high-oleic soybean oil wax and emulsion for post-harvest treatment of fresh fruit” (Iowa State University Research Foundation, Inc., priority 2020, dated 2024)
Marks after values point to notes of the source that are not given here.

Legend:
Type in all cases: physicochemical
[1] = Cohesiveness of wax materials (three-point bend test); details: area under curve to peak force, 4 mm-thick cast sample
Method: (§1) Hardness, defined as a measure of resistance to local deformation, was measured using a H-1200 Universal Penetrometer (Humboldt Mfg. Co., Raleigh, NC) following ASTM D1321 standard. Ten grams of molten material were cast in a 5 cm diameter by 3 cm tall hollow polyvinyl chloride plastic mold. Material was allowed to fully cool and equilibrate to room temperature for at least 6 hours prior to testing. The distance traveled by penetrometer needle (mm) into the wax disc was recorded as the hardness (mm^−1) after taking the reciprocal value. Cohesiveness, defined as the strength of a material due to interatomic or intermolecular forces, was measured as per previous methodology (Fei et al., “Synthesis and Characterization of Soybean Oil-Based Waxes and Their Application as Paraffin Substitute for Corrugated Coating,” J. Ind. Eng. Chem. 58:113-122 (2018), which is hereby incorporated by reference in its entirety) by a three-point bend test using a TA.XTPlus Texture Analyzer (Stable Micro Systems, So. Hamilton, MA) with a TA-92N probe on a 4 mm-thick cast wax sample, made by casting 2.2-2.8 g of molten material in a small hexagonal weighing boat, and allowing samples to cool to r.t. for at least 2 hours. Hexagonal samples were then sanded down flat to a uniform mass with a fine grit sanding sponge taking care to remove concave and convex regions. Test was performed by placing sample between two vertical support bars 12 mm apart and driving the blunt blade normal to the sample at 0.5 mm/s to a trigger distance of 3 mm. The area under curve was acquired from a distance at 0 mm to the peak positive force, and the average of three tests for each material was recorded as the cohesiveness (g mm) of the material.

[2] = Differential scanning calorimetry of wax materials; details: for Relative Crystallinity: 290 J/g for a 100% crystalline material; for Enthalpy of Melting: DSC, heating to 100° C. at 10° C./min
Method: Melting profile of wax materials was analyzed with a DSC 250 Discovery (TA Instruments, New Castle, Del.) calorimeter using the methodology by Donhowe and Fennema (1993). Wax samples (approximately 10 mg) were first heated to 100° C. at a rate of 200° C./min, held for 3 min, cooled to 25° C. at a rate of 20° C./min and equilibrated for 3 min. Actual test ramp was then performed by heating to 100° C. at a rate of 10° C./min. Melting point ranges were calculated from the average of three samples from each material.

[3] = Hardness of wax materials (penetrometer, ASTM D1321); details: reciprocal of needle penetration distance, room temperature
Method: as §1

Compound	Cohesiveness [1]	Relative Crystallinity [2]	Enthalpy of Melting [2] [J/g]	Hardness [3]
CCCCCC[C@@H](O)CCCCCCCCCCC(=O)O [Compound 6, (R)-12-hydroxyoctadecanoic acid, reference compound]	1443 ± 30^c g mm	51.2 ± 1.0^ab %	148.4 ± 3.1	2.22 ± 0.04^c mm^−1
CCCCCCC(=O)CCCCCCCCCCC(=O)O [Compound 7, 12-Oxooctadecanoic Acid]	360 ± 34 g mm	42.8 ± 10.1%	124.3 ± 29.4	0.63 ± 0.08 mm^−1
CCCCCCC(=O)CCCCCCCCCCC(=O)OCC(COC(=O)CCCCCCCCCCC(=O)CCCCCC)OC(=O)CCCCCCCCCCC(=O)CCCCCC [Compound 8, Propane-1,2,3-triyl tris(12-oxooctadecanoate)]	203 ± 49 g mm	43.7 ± 0.7^ %	126.8 ± 2.0	0.50 ± 0.09 mm^−1
Mixture of 9-Hydroxyoctadecanoic (4a) and 10-Hydroxyoctadecanoic Acid (4b) [Compound 4a-b]	95 ± 1 g mm	6.3 ± 0.4^f %	18.3 ± 0.1	0.30 ± 0.02^e mm^−1
Triacylglyceride of Regioisomeric Hydroxyoctadecanoic Acid [Compound 3]	113 ± 13 g mm	12.9 ± 1.5^ef %	37.3 ± 4.3	0.68 ± 0.05 mm^−1
